Eight substances from patent US9593153B2, “Modified apelin polypeptides” (INSERM (INSTITUT NATIONAL DE LA SANTE ET DE LA RECHERCHE …, priority 2012, dated 2017) can be followed below.

Entries after “also recorded” stand apart in the source; their conditions may differ.

One assay relates to proApelin processing. The assay is described as follows: proApelin processing in transfected cells with PC inhibitors (immunoblot). In kind it is cell-based, human. Particulars: cell transfection experiments, coexpression with apelin. An excerpt: FIG. 2: Human apelin cDNA encodes a protein of 77 amino acid residues. Newly synthesized apelin is a preproprotein that is proteolytically processed in order to generate mature 36, 17 and 13 amino acid forms. We cloned human apelin into pIRES2-eGFP vector adding a V5 tag in C-terminus of the apelin sequence. […] To identify the PCs involved in apelin processing, apelin and each of the PCs were transiently co-expressed in LoVo cells, a furin-deficient cell line. Supernatants were collected 24 hours after transfection and analyzed for proapelin processing by immunoblotting using a V5 antibody. As illustrated in (a), analyses of media derived from LoVo cells cotransfected with vector encoding proapelin and control vector show a band with an apparent molecular mass of 8-9 kDa, corresponding to the intact apelin precursor. […] FIG. 3: […]

In assay [1] the test system is human platelets. The assay is described as follows: Thrombin-induced aggregation of washed human platelets. In kind it is cell-based. Particulars: for thrombin-induced platelet aggregation: human platelets preincubated with peptide alone; for effect on the apelin inhibitory effect on thrombin-induced aggregation: human platelets, peptide together with apelin. As to the method: FIG. 5: APJ antagonist […]) and unprocessed double mutant apelin-36 (apelin-DM) confirm the role of APJ in the inhibition of platelet function by apelin. Thrombin-induced aggregation of human platelets preincubated with PBS, as control (black bar); […] (100 nM; white bar); apelin (10 nM; grey bar) or […] (100 nM) plus apelin (10 nM) (dashed bar). Venous blood was collected from healthy donors on 10% (v/v) trisodium citrate (3.8%). Written informed consent was obtained from all the donors. Platelet-rich plasma (PRP) was obtained by centrifugation (120 g; 15 minutes; 20° C.) and platelets were isolated by differential centrifugation as previously described^15. The platelet pellet was resuspended in modified Tyrode-HEPES buffer without CaCl2 (137 mM NaCl, 2 mM KCl, 0.3 mM NaH2PO4, 5.5 mM glucose, 5 mM Hepes, 12 mM NaHCO3, pH 7.3). Platelet aggregation was monitored by measuring light transmission through the stirred suspension of washed platelets (3×10^8/mL) at 37° C. in presence of 1 mM CaCl2 using a Chronolog aggregometer (Chrono-log Corporation, USA). When mentioned, platelets were first incubated with apelin-13, apelin-36, apelin-DM or […] for 3 minutes at 37° C. Platelet aggregation was triggered by adding collagen, thrombin, or ADP. Representative traces for aggregation were obtained from at least three independent experiments. Results are expressed as the percent change in light transmission with respect to the blank (buffer without platelets), set at 100%.

The subject of another assay is mouse aortic ring. Briefly: Mouse aortic ring assay.
The test system of assay [2] is chick chorioallantoic membrane. Briefly: Chick chorioallantoic membrane (CAM) assay. It is filed as in vivo.
In another assay the test system is wild-type mice. The assay is described as follows: Tail bleeding time after intravenous injection. In kind it is in vivo, mouse. The conditions noted are these: for tail bleeding time: peptide alone; for effect on the apelin-induced increase in bleeding time: peptide together with apelin. An excerpt:
FIG. 7: APJ antagonist […]) and unprocessed double mutant apelin-36 (apelin-DM) confirm the role of APJ in the inhibition of platelet function by apelin. Tail bleeding time in wild-type mice receiving an intravenous injection of PBS, as control (●); […] (500 nmol/kg; ▪); apelin (50 nmol/kg; ◯) or […] (500 nmol/kg) plus apelin (50 nmol/kg) (□). FIG. 8: APJ antagonist […]) and unprocessed double mutant apelin-36 (apelin-DM) confirm the role of APJ in the inhibition of platelet function by apelin. Tail bleeding time in wild-type mice receiving an intravenous injection of PBS, as control (●); apelin (50 nmol/kg; ◯); apelin-36 (500 nmol/kg; Δ); apelin-DM (500 nmol/kg; ▪), apelin-36 plus apelin (▾) or apelin-DM plus apelin (□). Complete blood counts and haematocrit were determined with an automatic cell counter, using the standard parameters for mice. Bleeding time assays were performed on overnight fasted animals, after injection of PBS, apelin-13, apelin-36, apelin-DM or […] into the retro-orbital plexus, by cutting off the tip of the tail (3 mm from the tip) and immediately immersing it in saline at 37° C. We then recorded the time taken for the bleeding to stop.

The test system of assay [3] is human platelets. Briefly: Intracellular Ca2+ mobilization in thrombin-stimulated human platelets (Fura-2). It is filed as cell-based. The conditions noted are these: for thrombin-induced Ca2+ mobilisation: human platelets preincubated with peptide alone; for effect on the apelin inhibitory effect on thrombin-induced Ca2+ mobilisation: human platelets, peptide together with apelin. The protocol:
FIG. 6: APJ antagonist […]) and unprocessed double mutant apelin-36 (apelin-DM) confirm the role of APJ in the inhibition of platelet function by apelin. Intracellular Ca^2+ mobilization ([Ca^2+]i) in human platelets was monitored in real-time using a fluorescence spectrophotometer. Human platelets, loaded with Fura-2-AM were preincubated 3 minutes with PBS, as control (black bar); […] (100 nM; white bar); apelin (10 nM; grey bar) or […] (100 nM) plus apelin (10 nM) (dashed bar) before stimulation by thrombin (100 mU/mL). […] Human platelets were loaded with Fura-2 by incubation with 2 μM Fura-2-AM for 45 minutes at 37° C. Cells were then collected by centrifugation at 350 g for 15 min and resuspended in HEPES-buffered saline (145 mM NaCl, 10 mM HEPES, 10 mM D-glucose, 5 mM KCl, 1 mM MgSO4, pH 7.4), and supplemented with 0.1% (w/v) BSA. Fluorescence was recorded from 2 mL aliquots of magnetically stirred cell suspensions at 37° C. using a fluorescence spectrophotometer (Varian Ltd., Madrid, Spain) with excitation wavelengths of 340 and 380 nm and emission at 505 nm. Changes in [Ca^2+]i were monitored using the Fura-2 340/380 fluorescence ratio and calibrated according to the method of Grynkiewicz et al.^19. Ca^2+ release by thrombin was estimated using the integral of the rise in [Ca^2+]i for 2.5 minutes after its addition, taking a sample every second, and was expressed in nM as previously described^20.
(A change in cytosolic calcium serves as a functional read-out for many receptors and channels.)

Assay [4] can be described thus: Cutaneous reverse passive Arthus reactions assay. In kind it is in vivo.
Assay [5] concerns HUVEC. Briefly: HUVEC proliferation induced by VEGF (Cell Titer96 assay). It is filed as cell-based, human. As to the method:
FIG. 9: HUVEC proliferation and motility. HUVEC were serum deprived overnight and then treated for 24 h with or without VEGF in the presence of apelin wild-type (10 ng/ml) and/or apelin mut-36 (10 ng/ml). Cell proliferation was assessed using Cell Titer96 non-radioactive cell proliferation assay.

Assay [6] has as its system HUVEC. Briefly: Endothelial cell migration (motility) induced by VEGF. It is filed as cell-based, human.

Consider “alpha1-PDX: Furin inhibitor serpin alpha1-antitrypsin, furin-motif variant of α1-antitrypsin”, for which, in the assay with proApelin processing, the “processing of proApelin” value is recorded as “inhibited”.
For the substance apelin-13, the thrombin-induced platelet aggregation result in the assay on human platelets [1] is given as “inhibited”. Moreover, the “formation of new vessels (neo-vascularisation)” value (with mouse aortic ring; in [2]) was “induced the formation of new vessels” each time. Also, the tail bleeding time result with wild-type mice was “significant increase in bleeding time”. Besides, the “thrombin-induced Ca2+ mobilisation” value with human platelets [3] is listed as “inhibited”.
As for apelin, the tissue inflammation entry in [4] is given as “increased tissue inflammation”.
“Apelin-36: proApelin (Apelin-36), 36 amino acid cleavage product of preproapelin (LVQPRGSRNGPGPWQGGRRKFRRQRPRLSHKGPMPF; listed as Homo sapiens)”: in the assay with human platelets [1], the thrombin-induced platelet aggregation entry is on record as “inhibited”. In addition, the tail bleeding time entry in the assay on wild-type mice is reported as “significant increase in bleeding time”. Further, the “thrombin-induced Ca2+ mobilisation” value in the assay on human platelets [3] was “inhibited”.
Turning to “F13A: APJ receptor antagonist apelin-13 (F13A)”, in the assay on human platelets [1], the thrombin-induced platelet aggregation result is given as “no effects” and the “effect on the apelin inhibitory effect on thrombin-induced aggregation” value is “prevents the inhibitory effects of apelin alone; also recorded: abolished the apelin inhibitory effect”. In addition, in the assay on wild-type mice, the tail bleeding time entry is given as “no effects” and the “effect on the apelin-induced increase in bleeding time” value was “prevents the inhibitory effects of apelin alone; also recorded: inhibited”. Moreover, in the assay on human platelets [3], the “thrombin-induced Ca2+ mobilisation” value is given as “no effects” and the “effect on the apelin inhibitory effect on thrombin-induced Ca2+ mobilisation” value is on record as “prevents the inhibitory effects of apelin alone; also recorded: abolished the apelin inhibitory effect”.
Consider “LVQPRGSRNGPGPWQGGSSKFSSQRPRLSHKGPMPF (Synthetic inhibitor of apelin) [Apelin-DM, unprocessed mutant of apelin; cleavage sites of proapelin (18RRKFRR) replaced by 18SSKFSS]”, for which the “effect on the apelin inhibitory effect on thrombin-induced aggregation” value in the assay with human platelets [1] is “abolished the apelin inhibitory effect”. In addition, the “formation of new vessels (neo-vascularisation)” value (in the assay with mouse aortic ring; in [2]) was “prevents the neo-vascularisation” throughout. Besides, the tissue inflammation entry in assay [4] is “inhibited these processes”. In addition, the “effect on the apelin-induced increase in bleeding time” value in the assay on wild-type mice was “inhibited”. Moreover, the “effect on the apelin inhibitory effect on thrombin-induced Ca2+ mobilisation” value in the assay with human platelets [3] is on record as “abolished the apelin inhibitory effect”. Also, in the assay on HUVEC [5], the “endothelial cell proliferation induced by VEGF” value was “inhibits”. The “endothelial cell migration induced by VEGF” value in the assay on HUVEC [6] is “inhibits”.
For “ppFurin: Furin inhibitor, prosegment proFurin”, the “processing of proApelin” value in the assay on proApelin processing is recorded as “inhibited”.
Turning to ppPC5: PC inhibitor, prosegment proPC5, in the assay on proApelin processing, the “processing of proApelin” value is given as “inhibited”.
